In patent US9951068B2 (Proximagen Limited, priority 2013, dated 2018) one finds IC50 data, which are given here for 25 compounds.

The target of series [1] is purified recombinantly expressed human SSAO (Homo sapiens (Human), UniProt Q16853). As to the kind of experiment: SSAO enzyme inhibition assay (HRP-coupled hydrogen peroxide detection or 14C-benzaldehyde detection, benzylamine substrate). The class given is biochemical. Particulars: SSAO inhibitory activity, human recombinant SSAO, RT. On the procedure:
All primary assays were performed at RT. with purified recombinantly expressed human SSAO. Enzyme was prepared essentially as described in Öhman et al. (Protein Expression and Purification 46 (2006) 321-331). In addition, secondary- and selectivity assays were performed using SSAO prepared from various tissues or purified rat recombinant SSAO. The enzyme activity was assayed with benzylamine as substrate by measuring either benzaldehyde production, using ^14C-labeled substrate, or by utilizing the production of hydrogen peroxide in a horseradish peroxidase (HRP) coupled reaction. Briefly, test compounds were dissolved in dimethyl sulfoxide (DMSO) to a concentration of 10 mM. Dose-response measurements were assayed by either creating 1:10 serial dilutions in DMSO to produce a 7 point curve or by making 1:3 serial dilutions in DMSO to produce 11 point curves.
In a horseradish peroxidase (HRP) coupled reaction, hydrogen peroxide oxidation of 10-acetyl-3,7-dihydroxyphenoxazine produced resorufin, which is a highly fluorescent compound (Zhout and Panchuk-Voloshina. Analytical Biochemistry 253 (1997) 169-174; Amplex® Red Hydrogen Peroxide/peroxidase Assay kit, Invitrogen A22188). Enzyme and compounds in 50 mM sodium phosphate, pH 7.4 were set to pre-incubate in flat-bottomed microtiter plates for approximately 15 min before initiating the reaction by addition of a mixture of HRP, benzylamine and Amplex reagent. Benzylamine concentration was fixed at a concentration corresponding to the Michaelis constant, determined using standard procedures. Fluorescence intensity was then measured at several time points during 1-2 h, exciting at 544 nm and reading the emission at 590 nm. For the human SSAO assay final concentrations of the reagents in the assay wells were: SSAO enzyme 1 ug/ml, benzylamine 100 uM, Amplex reagent 20 uM, HRP 0.1 U/mL and varying concentrations of test compound. The inhibition was measured as % decrease of the signal compared to a control without inhibitor (only diluted DMSO). The background signal from a sample containing no SSAO enzyme was subtracted from all data points. Data was fitted to a four parameter logistic model and IC50 values were calculated using the GraphPad Prism 4 or XLfit 4 programs.
SSAO activity was assayed using 14C-labeled benzylamine and analysed by measuring radioactive benzaldehyde. In a white 96-well optiplate (Packard), 20 uL of diluted test compound was pre-incubated at room temperature with 20 uL SSAO enzyme for approximately 15 min with continuous agitation. All dilutions were made with PBS. The reaction was initiated by adding 20 uL of the benzylamine substrate solution containing [7-14C] Benzylamine hydrochloride (CFA589, GE Healthcare). The plate was incubated for 1 h as above after which the reaction was stopped by acidification (10 uL 1M aq HCl). Then 90 uL Micro Scint-E solution (Perkin-Elmer) was added to each well and the plate was continuously mixed for 15 min. Phase separation occurred instantly and activity was read in a Topcount scintillation counter (Perkin-Elmer). In the final reaction well, the human recombinant SSAO concentration was 10 ug/ml. In order to optimize sensitivity, the substrate concentration was decreased as compared to the HRP coupled assay in order to get a higher fraction of radioactive product. In the human SSAO assay, benzylamine concentration was 40 uM (0.2 uCi/mL). Data was analysed as above.

Series [2] addresses human ether a go-go related gene (hERG) K+ channel (Homo sapiens (Human), UniProt Q12809). Briefly: hERG assay, IonWorks patch clamp electrophysiology. Particulars: Chinese Hamster Lung cell line stably expressing hERG; max assay concentration 11 uM. The format is cell-based. On the procedure:
Compounds of the invention were tested for inhibition of the human ether a go-go related gene (hERG) K^+ channel using IonWorks patch clamp electrophysiology. 8 Point concentration-response curves were generated on two occasions using 3-fold serial dilutions from the maximum assay concentration (11 uM). Electrophysiological recordings were made from a Chinese Hamster Lung cell line stably expressing the full length hERG channel. Single cell ion currents were measured in the perforated patch clamp configuration (100 ug/mL amphoterocin) at room temperature using an IonWorks Quattro instrument. The internal solution contained 140 mM KCl, 1 mM MgCl2, 1 mM EGTA and 20 mM HEPES and was buffered to pH 7.3. The external solution contained 138 mM NaCl, 2.7 mM KCl, 0.9 mM CaCl2, 0.5 mM MgCl2, 8 mM Na2HPO4 and 1.5 mM KH2PO4, and was buffered to pH 7.3. […] This sequence was repeated 5 times at a frequency of 0.25 Hz. Currents were measured from the tail step at the 5th pulse, and referenced to the holding current. Compounds were incubated for 6-7 min prior to a second measurement of the hERG signal using an identical pulse train. […] A control compound (quinidine) was used (see Table 20 below).
(In general: The hERG channel carries a current that helps repolarise heart muscle cells.)

Each structure is given as a SMILES string.

Chain of human ether a go-go related gene (hERG) K+ channel (Q12809 whole entry): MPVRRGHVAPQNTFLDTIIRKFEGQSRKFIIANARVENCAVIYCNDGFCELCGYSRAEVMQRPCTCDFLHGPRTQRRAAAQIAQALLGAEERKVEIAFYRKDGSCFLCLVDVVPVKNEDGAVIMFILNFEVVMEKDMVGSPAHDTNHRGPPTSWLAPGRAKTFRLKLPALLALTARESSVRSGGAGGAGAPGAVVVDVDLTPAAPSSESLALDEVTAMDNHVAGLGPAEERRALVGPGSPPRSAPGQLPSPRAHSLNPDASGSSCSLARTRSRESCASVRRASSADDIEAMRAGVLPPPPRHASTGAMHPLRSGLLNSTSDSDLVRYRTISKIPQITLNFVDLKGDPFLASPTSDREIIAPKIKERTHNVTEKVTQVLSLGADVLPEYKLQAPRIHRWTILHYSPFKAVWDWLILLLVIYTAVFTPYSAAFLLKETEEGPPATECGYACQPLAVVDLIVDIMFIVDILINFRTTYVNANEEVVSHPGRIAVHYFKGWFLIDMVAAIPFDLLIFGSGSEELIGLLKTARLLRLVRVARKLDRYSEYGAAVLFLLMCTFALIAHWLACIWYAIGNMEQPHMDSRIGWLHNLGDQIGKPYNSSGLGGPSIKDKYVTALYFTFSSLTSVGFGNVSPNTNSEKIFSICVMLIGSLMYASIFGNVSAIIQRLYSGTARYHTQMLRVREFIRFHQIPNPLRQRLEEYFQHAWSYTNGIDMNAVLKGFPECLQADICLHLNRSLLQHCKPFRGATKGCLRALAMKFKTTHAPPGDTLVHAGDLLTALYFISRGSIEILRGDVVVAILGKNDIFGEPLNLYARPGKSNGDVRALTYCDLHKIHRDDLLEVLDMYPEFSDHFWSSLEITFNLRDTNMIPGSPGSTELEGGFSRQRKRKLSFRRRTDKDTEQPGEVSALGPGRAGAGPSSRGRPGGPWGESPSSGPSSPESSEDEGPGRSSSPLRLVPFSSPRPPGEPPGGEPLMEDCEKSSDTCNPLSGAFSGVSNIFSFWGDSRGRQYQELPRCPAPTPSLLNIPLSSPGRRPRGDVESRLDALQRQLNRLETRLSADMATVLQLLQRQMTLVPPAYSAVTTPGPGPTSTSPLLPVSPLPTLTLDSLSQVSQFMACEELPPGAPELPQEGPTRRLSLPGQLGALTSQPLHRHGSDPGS
Chain of purified recombinantly expressed human SSAO (Q16853 29-763): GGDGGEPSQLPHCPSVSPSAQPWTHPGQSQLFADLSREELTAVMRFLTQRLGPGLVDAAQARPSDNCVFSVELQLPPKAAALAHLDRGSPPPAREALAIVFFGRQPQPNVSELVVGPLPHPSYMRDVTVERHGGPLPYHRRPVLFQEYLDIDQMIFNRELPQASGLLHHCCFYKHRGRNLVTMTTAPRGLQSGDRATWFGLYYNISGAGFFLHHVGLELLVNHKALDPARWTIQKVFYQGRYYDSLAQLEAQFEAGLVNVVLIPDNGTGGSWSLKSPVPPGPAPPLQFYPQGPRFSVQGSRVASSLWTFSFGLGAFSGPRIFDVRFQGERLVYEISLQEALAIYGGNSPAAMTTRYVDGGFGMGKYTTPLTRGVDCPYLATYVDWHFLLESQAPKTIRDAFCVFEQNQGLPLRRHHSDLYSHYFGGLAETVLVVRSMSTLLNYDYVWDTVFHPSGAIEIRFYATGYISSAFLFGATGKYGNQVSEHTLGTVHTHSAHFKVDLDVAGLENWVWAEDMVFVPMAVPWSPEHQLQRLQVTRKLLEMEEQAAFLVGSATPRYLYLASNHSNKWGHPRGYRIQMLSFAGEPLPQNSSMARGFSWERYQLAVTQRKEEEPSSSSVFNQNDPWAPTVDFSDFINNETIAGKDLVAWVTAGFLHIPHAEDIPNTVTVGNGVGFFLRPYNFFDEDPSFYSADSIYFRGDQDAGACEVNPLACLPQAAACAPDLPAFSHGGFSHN

Broadly, the IC50 is the concentration at which inhibition is half-maximal. As to `Clc1ccc(-n2c(-c3cnc(NC4CCOCC4)nc3)nc3ccncc32)cc1` [Example 11, 5-[3-(4-Chlorophenyl)-3H-imidazo[4,5-c]pyridin-2-yl]-N-(oxan-4-yl)pyrimidin-2-amine; bis(trifluoroacetic acid)], the IC50 in series [1] is less than 0.05 µM; in series [2] it was more than 10 µM. As to `O=C1CN(c2ncc(-c3nc4ccncc4n3-c3ccc(Cl)cc3)cn2)CCN1` [Example 13, 4-{5-[3-(4-Chlorophenyl)-3H-imidazo[4,5-c]pyridin-2-yl]pyrimidin-2-yl}piperazin-2-one], the figures for the IC50 in series [1] and in series [2] were less than 0.05 µM and more than 10 µM, respectively. In turn, `Fc1ccc(-n2c(-c3cnc(NC4CCOCC4)nc3)nc3ccncc32)cc1` [Example 20, 5-[3-(4-Fluorophenyl)-3H-imidazo[4,5-c]pyridin-2-yl]-N-(oxan-4-yl)pyrimidin-2-amine] registered an IC50 in series [2] of more than 10 µM. On to `Cc1cc(N2CCOCC2)ncc1-c1nc2ccncc2n1-c1ccc(F)cc1` [Example 21, 4-{5-[3-(4-Fluorophenyl)-3H-imidazo[4,5-c]pyridin-2-yl]-4-methylpyridin-2-yl}morpholine], for which the IC50 was less than 0.05 µM in series [1] and more than 10 µM in series [2]. As to `C[C@@H]1CN(c2ncc(-c3nc4ccncc4n3-c3ccc(F)cc3)cn2)C[C@H](C)O1` [Example 23, (2R,6S)-4-{5-[3-(4-Fluorophenyl)-3H-imidazo[4,5-c]pyridin-2-yl]pyrimidin-2-yl}-2,6-dimethylmorpholine], the results for the IC50 in series [1] and in series [2] were less than 0.05 µM and more than 10 µM, respectively.

Consider `CC1(C)CN(c2ncc(-c3nc4ccncc4n3-c3ccc(F)cc3)cn2)CCO1` [Example 24, 4-{5-[3-(4-Fluorophenyl)-3H-imidazo[4,5-c]pyridin-2-yl]pyrimidin-2-yl}-2,2-dimethylmorpholine], for which the IC50 in series [1] is less than 0.05 µM; in series [2], more than 10 µM. For the compound `CN1CCN(Cc2ccc(-c3nc4ccncc4n3-c3ccc(Cl)cc3)cc2)CC1` [Example 46, 1-({4-[3-(4-Chlorophenyl)-3H-imidazo[4,5-c]pyridin-2-yl]phenyl}methyl)-4-methylpiperazine; formic acid], the results for the IC50 in series [1] and in series [2] were less than 0.05 µM and more than 10 µM, respectively. The matching figures for `Clc1ccc(-n2c(-c3ccc(N4CCNCC4)nc3)nc3ccncc32)cc1` [Example 50, 1-{5-[3-(4-Chlorophenyl)-3H-imidazo[4,5-c]pyridin-2-yl]pyridin-2-yl}piperazine]: less than 0.05 µM and more than 10 µM. On the same counts, the results for `Fc1ccc(-n2c(-c3cnc(N4CCOCC4)nc3)nc3ccncc32)cc1` [Example 52, 4-{5-[3-(4-Fluorophenyl)-3H-imidazo[4,5-c]pyridin-2-yl]pyrimidin-2-yl}morpholine] are less than 0.05 µM and more than 10 µM.

Compound `Cc1ccc(-n2c(-c3cnc(N4CCOCC4)nc3)nc3ccncc32)c(F)c1` [Example 53, 4-{5-[3-(2-Fluoro-4-methylphenyl)-3H-imidazo[4,5-c]pyridin-2-yl]pyrimidin-2-yl}morpholine] displayed an IC50 in series [2] of more than 10 µM.

Consider `Fc1ccc(-n2c(-c3ccc(N4CCOCC4)nc3)nc3ccncc32)cc1` [Example 54, 4-{5-[3-(4-Fluorophenyl)-3H-imidazo[4,5-c]pyridin-2-yl]pyridin-2-yl}morpholine], for which, in series [2], the IC50 is more than 10 µM. The same measure, in the same setting: in the case of `Cc1ccc(-n2c(-c3cnc(N4CCOCC4)nc3)nc3ccncc32)cc1` [Example 57, 4-{5-[3-(4-Methylphenyl)-3H-imidazo[4,5-c]pyridin-2-yl]pyrimidin-2-yl}morpholine] it was more than 10 µM; in that of `Cc1ccc(-n2c(-c3ccc(N4CCOCC4)nc3)nc3ccncc32)cc1` [Example 63, 4-{5-[3-(4-Methylphenyl)-3H-imidazo[4,5-c]pyridin-2-yl]pyridin-2-yl}morpholine], more than 10 µM. As for `Cc1ccc(-n2c(-c3ccc(N4CCOCC4)nc3)nc3ccncc32)cn1` [Example 64, 4-{5-[3-(6-Methylpyridin-3-yl)-3H-imidazo[4,5-c]pyridin-2-yl]pyridin-2-yl}morpholine], the IC50 in series [2] was more than 10 µM. With `Fc1ccc(-n2c(-c3cnc(N4CCCC4)nc3)nc3ccncc32)cc1` [Example 69, 5-[3-(4-Fluorophenyl)-3H-imidazo[4,5-c]pyridin-2-yl]-2-(pyrrolidin-1-yl)pyrimidine], the IC50 in series [1] was less than 0.05 µM; in series [2], more than 10 µM. For the compound `CC1CN(c2ccc(-c3nc4ccncc4n3-c3ccc(F)cc3)cn2)CCO1` (stereo not drawn) [Example 70, 4-{5-[3-(4-Fluorophenyl)-3H-imidazo[4,5-c]pyridin-2-yl]pyridin-2-yl}-2-methylmorpholine], the IC50 was less than 0.05 µM in series [1] and more than 10 µM in series [2]. For the compound `CN(C)c1ccc(-c2nc3ccncc3n2-c2ccc(F)cc2)cn1` [Example 71, 5-[3-(4-Fluorophenyl)-3H-imidazo[4,5-c]pyridin-2-yl]-N,N-dimethylpyridin-2-amine], the IC50 in series [2] was more than 10 µM. Consider `Clc1ccc(-n2c(-c3cnc(N4CCOCC4)nc3)nc3ccncc32)nc1` [Example 75, 4-{5-[3-(5-Chloropyridin-2-yl)-3H-imidazo[4,5-c]pyridin-2-yl]pyrimidin-2-yl}morpholine; tris(trifluoroacetic acid)], for which the IC50 in series [1] was less than 0.05 µM; in series [2], more than 10 µM. With `Fc1cc(Cl)ccc1-n1c(-c2cnc(N3CCOCC3)nc2)nc2ccncc21` [Example 77, 4-{5-[3-(4-Chloro-2-fluorophenyl)-3H-imidazo[4,5-c]pyridin-2-yl]pyrimidin-2-yl}morpholine], in series [2], the IC50 was more than 10 µM. As to `Fc1cc(Cl)ccc1-n1c(-c2ccc(N3CCOCC3)nc2)nc2ccncc21` [Example 80, 4-{5-[3-(4-Chloro-2-fluorophenyl)-3H-imidazo[4,5-c]pyridin-2-yl]pyridin-2-yl}morpholine], the IC50 in series [2] is more than 10 µM. Turning to `NC(=O)NC1CCN(c2ccc(-c3nc4ccncc4n3-c3ccc(Cl)cc3)cn2)CC1` [Example 91, (1-{5-[3-(4-Chlorophenyl)-3H-imidazo[4,5-c]pyridin-2-yl]pyridin-2-yl}piperidin-4-yl)urea; bis(trifluoroacetic acid)], the IC50 in series [2] was more than 10 µM. Still for that read-out and setting: the value for `c1ccc(-n2c(-c3cnc(N4CCOCC4)nc3)nc3ccncc32)cc1` [Example 95, 4-(5-{3-Phenyl-3H-imidazo[4,5-c]pyridin-2-yl}pyrimidin-2-yl)morpholine] was more than 10 µM; that for `Fc1ccc(-n2c(-c3cnc(N4CCOCC4)c(F)c3)nc3ccncc32)cc1` [Example 98, 4-{3-Fluoro-5-[3-(4-fluorophenyl)-3H-imidazo[4,5-c]pyridin-2-yl]pyridin-2-yl}morpholine] was more than 10 µM. Same read-out and setting: in the case of `Nc1ccc(-c2nc3ccncc3n2-c2ccc(Cl)cc2)cn1` [Example 110, 5-[3-(4-Chlorophenyl)-3H-imidazo[4,5-c]pyridin-2-yl]pyridin-2-amine] it was more than 10 µM; in that of `COCCN(C)c1ncc(-c2nc3ccncc3n2-c2ccc(C)cc2)cn1` [Example 117, N-(2-Methoxyethyl)-N-methyl-5-[3-(4-methylphenyl)-3H-imidazo[4,5-c]pyridin-2-yl]pyrimidin-2-amine], more than 10 µM.
